Test results as given in patent US9688670B2, “Benzimidazole compounds and medical uses thereof” (Sumitomo Dainippon Pharma Co., Ltd., priority 2015, dated 2017).

Biological target: human SCN9A (Nav 1.7) (Homo sapiens, UniProt Q15858)
Assay: Measurement of Na ion current (Nav 1.7 current) by automated patch clamp assay using cells stably-expressing human SCN9A
Format: cell-based
Conditions: concentration of each compound 10 μmol/L, holding potential inactivating 50% Nav 1.7 channel (around −60 mV), room temperature
Protocol: Measurement of Na Ion Current in Voltage-Dependent Na Channel Gene Expressed Cell Nav 1.7 current was measured by automated patch clamp assay using cells stably-expressing human SCN9A. Cells Stably-Expressing Human SCN9A Tetracycline-induced cells stably-expressing SCN9A were obtained from ChanTest Corporation. […] Next day, the Na ion current was measured by automated patch clamp assay. Electrophysiologic Measurement of Na Ion Current The Na ion current was measured by automated patch clamp assay using the following extracellular solution and intracellular solution. […] The control of the stimulating pulse and the data acquisition were carried out using EPC10 amplifier and Patch Master Software (HEKA). Data were sampled at 10 kHz, and low-pass filtered at 3 kHz. All the measurements were carried out at room temperature. […] The inhibitory rate of the Na ion current by the test compounds was calculated according to the following calculating formula with the peak current value generated by the depolarizing pulse. […] The inhibitory rate of Na ion current by each Example Compound was evaluated.

Chain of human SCN9A (Nav 1.7) (Q15858 whole entry): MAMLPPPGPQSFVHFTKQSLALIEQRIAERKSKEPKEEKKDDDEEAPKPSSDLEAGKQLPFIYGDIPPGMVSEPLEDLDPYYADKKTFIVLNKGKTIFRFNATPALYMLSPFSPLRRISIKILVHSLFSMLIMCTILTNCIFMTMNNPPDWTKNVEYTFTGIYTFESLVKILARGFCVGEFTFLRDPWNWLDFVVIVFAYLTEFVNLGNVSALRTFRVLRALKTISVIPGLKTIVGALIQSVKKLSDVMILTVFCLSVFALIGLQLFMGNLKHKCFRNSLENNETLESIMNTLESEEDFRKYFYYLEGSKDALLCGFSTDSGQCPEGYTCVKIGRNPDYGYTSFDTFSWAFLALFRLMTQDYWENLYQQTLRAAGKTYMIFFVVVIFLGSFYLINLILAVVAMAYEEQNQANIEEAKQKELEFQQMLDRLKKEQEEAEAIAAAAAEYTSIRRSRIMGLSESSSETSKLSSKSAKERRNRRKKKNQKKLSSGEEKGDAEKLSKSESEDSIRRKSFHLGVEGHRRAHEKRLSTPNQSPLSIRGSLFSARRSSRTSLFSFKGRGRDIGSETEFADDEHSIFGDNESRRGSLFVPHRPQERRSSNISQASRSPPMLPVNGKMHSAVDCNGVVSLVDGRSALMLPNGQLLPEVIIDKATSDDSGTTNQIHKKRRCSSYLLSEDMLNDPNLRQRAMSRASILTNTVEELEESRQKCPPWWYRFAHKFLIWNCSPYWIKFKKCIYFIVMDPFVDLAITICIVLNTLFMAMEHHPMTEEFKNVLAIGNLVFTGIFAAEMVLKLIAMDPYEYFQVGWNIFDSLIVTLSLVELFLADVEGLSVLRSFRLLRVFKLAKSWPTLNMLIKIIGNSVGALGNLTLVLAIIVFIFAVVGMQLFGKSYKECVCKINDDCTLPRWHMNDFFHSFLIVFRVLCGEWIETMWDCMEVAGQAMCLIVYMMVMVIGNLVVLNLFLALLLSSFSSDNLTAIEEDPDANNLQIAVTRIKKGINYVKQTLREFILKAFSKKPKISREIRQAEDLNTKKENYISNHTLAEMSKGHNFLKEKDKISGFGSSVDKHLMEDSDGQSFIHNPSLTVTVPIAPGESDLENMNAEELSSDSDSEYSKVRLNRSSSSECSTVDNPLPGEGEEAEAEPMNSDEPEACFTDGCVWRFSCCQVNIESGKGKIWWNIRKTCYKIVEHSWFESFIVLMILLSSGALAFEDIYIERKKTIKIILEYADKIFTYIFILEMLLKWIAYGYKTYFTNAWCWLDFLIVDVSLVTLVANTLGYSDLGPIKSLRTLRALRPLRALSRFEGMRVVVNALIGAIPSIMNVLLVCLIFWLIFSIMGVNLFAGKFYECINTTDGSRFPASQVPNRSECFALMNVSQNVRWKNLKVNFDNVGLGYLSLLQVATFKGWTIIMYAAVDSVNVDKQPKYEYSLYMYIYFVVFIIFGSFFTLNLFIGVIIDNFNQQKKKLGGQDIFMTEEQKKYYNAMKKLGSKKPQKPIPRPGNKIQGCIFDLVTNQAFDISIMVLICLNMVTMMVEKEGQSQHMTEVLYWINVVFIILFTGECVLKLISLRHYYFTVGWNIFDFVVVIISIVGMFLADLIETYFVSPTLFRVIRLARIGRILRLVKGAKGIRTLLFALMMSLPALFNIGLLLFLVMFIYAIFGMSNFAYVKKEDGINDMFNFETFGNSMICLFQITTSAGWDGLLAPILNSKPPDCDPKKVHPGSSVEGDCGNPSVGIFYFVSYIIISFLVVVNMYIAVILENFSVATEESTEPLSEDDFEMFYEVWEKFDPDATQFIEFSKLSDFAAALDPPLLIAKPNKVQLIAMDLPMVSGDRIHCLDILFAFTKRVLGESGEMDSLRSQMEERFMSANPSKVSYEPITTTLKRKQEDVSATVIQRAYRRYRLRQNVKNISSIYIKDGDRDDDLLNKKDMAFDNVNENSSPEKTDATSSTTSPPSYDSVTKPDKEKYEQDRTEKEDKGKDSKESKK

Row | Inhibitory rate (%) of Na ion current [%] | inhibition at 10 µM (read-out: Inhibitory rate (%) of Na ion current) [%] | SMILES
1 | 15 | – | OC1(Cn2cnc3ccc(Oc4ccc(C(F)(F)F)cc4)cc32)COC1 [Example 90]
2 | – | 21 | C[C@]1(O)C[C@@H](n2cnc3ccc(Oc4ccc(C(F)(F)F)cn4)cc32)C1 [Example 121]
